# Target: not listed separately
# Test: Inhibition of gamma-secretase-mediated notch cleavage after 2 hrs by ELISA
# Details: not given
row,IC50,Compound
1,9320 nM,Cc1cccc(CN([C@@H]2CCCCNC2=O)S(=O)(=O)c2ccc(Cl)cc2)n1
2,91 nM,O=C(Nc1ccccc1)c1ccc(CN([C@@H]2CCCCNC2=O)S(=O)(=O)c2ccc(Cl)cc2)cc1
3,196 nM,O=C1NCCCC[C@H]1N(CC1CCc2ccccc2O1)S(=O)(=O)c1ccc(Cl)cc1 (some centres not stated)
4,28 nM,O=C1NCCCC[C@H]1N(Cc1ccc2nccnc2c1)S(=O)(=O)c1ccc(Cl)cc1
5,126 nM,O=C1NCCCC[C@H]1N(Cc1cnc2ccccc2c1)S(=O)(=O)c1ccc(Cl)cc1
6,65 nM,O=C(NC1CC1)c1ccc(CN([C@@H]2CCCCNC2=O)S(=O)(=O)c2ccc(Cl)cc2)cc1
7,601 nM,Cc1ccc(CN([C@@H]2CCCCNC2=O)S(=O)(=O)c2ccc(Cl)cc2)o1
8,1050 nM,O=C1NCCCC[C@H]1N(Cc1cnc2ncccc2c1)S(=O)(=O)c1ccc(Cl)cc1
9,4 nM,O=C1NCCCC[C@H]1N(Cc1ccc2ncccc2c1)S(=O)(=O)c1ccc(Cl)cc1
10,26 nM,CCCNC(=O)c1ccc(CN([C@@H]2CCCCNC2=O)S(=O)(=O)c2ccc(Cl)cc2)cc1
11,1830 nM,O=C1NCCCC[C@H]1N(Cc1nccs1)S(=O)(=O)c1ccc(Cl)cc1
12,49 nM,O=C(NC1CCC1)c1ccc(CN([C@@H]2CCCCNC2=O)S(=O)(=O)c2ccc(Cl)cc2)cc1
13,30 nM,O=C1NCCCC[C@H]1N(Cc1cc2ccccc2o1)S(=O)(=O)c1ccc(Cl)cc1
14,16 nM,O=C(NCc1ccccc1)c1ccc(CN([C@@H]2CCCCNC2=O)S(=O)(=O)c2ccc(Cl)cc2)cc1
15,39 nM,O=C1NCCCC[C@H]1N(Cc1ccc2nsnc2c1)S(=O)(=O)c1ccc(Cl)cc1
16,14 nM,O=C(NC1CCCC1)c1ccc(CN([C@@H]2CCCCNC2=O)S(=O)(=O)c2ccc(Cl)cc2)cc1
17,152 nM,O=C1NCCCC[C@H]1N(Cc1ccc2c(c1)OCCO2)S(=O)(=O)c1ccc(Cl)cc1
18,2790 nM,Cn1c(CN([C@@H]2CCCCNC2=O)S(=O)(=O)c2ccc(Cl)cc2)cc2ccccc21
19,46 nM,O=C1NCCCC[C@H]1N(Cc1cc2ccccc2s1)S(=O)(=O)c1ccc(Cl)cc1
20,66 nM,CC(C)NC(=O)c1ccc(CN([C@@H]2CCCCNC2=O)S(=O)(=O)c2ccc(Cl)cc2)cc1
21,2120 nM,O=C1NCCCC[C@H]1N(Cc1csnn1)S(=O)(=O)c1ccc(Cl)cc1
22,25 nM,O=C1NCCCC[C@H]1N(Cc1ccc2snnc2c1)S(=O)(=O)c1ccc(Cl)cc1
23,55 nM,CC(C)(C)CNC(=O)c1ccc(CN([C@@H]2CCCCNC2=O)S(=O)(=O)c2ccc(Cl)cc2)cc1

# Tested on: Mus musculus
# Test: Neuroprotective activity in P-gp KO (MDR1 ab-/-) mouse brain assessed as reduction of amyloid beta x-40 level at 100 mg/kg, ip
# Assay type: functional
# Details: route intraperitoneal
row,Compound,inhibition in vivo at 100 mg/kg
1,O=C1NCCCC[C@H]1N(Cc1ccc2nccnc2c1)S(=O)(=O)c1ccc(Cl)cc1,61%
2,O=C1NCCCC[C@H]1N(Cc1ccc2ncccc2c1)S(=O)(=O)c1ccc(Cl)cc1,62%
3,O=C1NCCCC[C@H]1N(Cc1ccc2snnc2c1)S(=O)(=O)c1ccc(Cl)cc1,60%

# Tested on: not listed separately
# Test: Selectivity ratio of IC50 for gamma-secretase-mediated notch cleavage to IC50 gamma-secretase-mediated APP cleavage
# Details: not given
row,Ratio IC50,Compound
1,2,Cc1cccc(CN([C@@H]2CCCCNC2=O)S(=O)(=O)c2ccc(Cl)cc2)n1
2,1,O=C(Nc1ccccc1)c1ccc(CN([C@@H]2CCCCNC2=O)S(=O)(=O)c2ccc(Cl)cc2)cc1
3,1,O=C1NCCCC[C@H]1N(CC1CCc2ccccc2O1)S(=O)(=O)c1ccc(Cl)cc1 (some centres not stated)
4,2,O=C1NCCCC[C@H]1N(Cc1ccc2nccnc2c1)S(=O)(=O)c1ccc(Cl)cc1
5,2,O=C1NCCCC[C@H]1N(Cc1cnc2ccccc2c1)S(=O)(=O)c1ccc(Cl)cc1
6,2,O=C(NC1CC1)c1ccc(CN([C@@H]2CCCCNC2=O)S(=O)(=O)c2ccc(Cl)cc2)cc1
7,1,Cc1ccc(CN([C@@H]2CCCCNC2=O)S(=O)(=O)c2ccc(Cl)cc2)o1
8,4,O=C1NCCCC[C@H]1N(Cc1cnc2ncccc2c1)S(=O)(=O)c1ccc(Cl)cc1
9,0.6,O=C1NCCCC[C@H]1N(Cc1ccc2ncccc2c1)S(=O)(=O)c1ccc(Cl)cc1
10,0.5,CCCNC(=O)c1ccc(CN([C@@H]2CCCCNC2=O)S(=O)(=O)c2ccc(Cl)cc2)cc1
11,1,O=C1NCCCC[C@H]1N(Cc1nccs1)S(=O)(=O)c1ccc(Cl)cc1
12,2,O=C(NC1CCC1)c1ccc(CN([C@@H]2CCCCNC2=O)S(=O)(=O)c2ccc(Cl)cc2)cc1
13,2,O=C1NCCCC[C@H]1N(Cc1cc2ccccc2o1)S(=O)(=O)c1ccc(Cl)cc1
14,2,O=C(NCc1ccccc1)c1ccc(CN([C@@H]2CCCCNC2=O)S(=O)(=O)c2ccc(Cl)cc2)cc1
15,3,O=C1NCCCC[C@H]1N(Cc1ccc2nsnc2c1)S(=O)(=O)c1ccc(Cl)cc1
16,0.6,O=C(NC1CCCC1)c1ccc(CN([C@@H]2CCCCNC2=O)S(=O)(=O)c2ccc(Cl)cc2)cc1
17,17,O=C1NCCCC[C@H]1N(Cc1ccc2c(c1)OCCO2)S(=O)(=O)c1ccc(Cl)cc1
18,5,Cn1c(CN([C@@H]2CCCCNC2=O)S(=O)(=O)c2ccc(Cl)cc2)cc2ccccc21
19,6,O=C1NCCCC[C@H]1N(Cc1cc2ccccc2s1)S(=O)(=O)c1ccc(Cl)cc1
20,2,CC(C)NC(=O)c1ccc(CN([C@@H]2CCCCNC2=O)S(=O)(=O)c2ccc(Cl)cc2)cc1
21,3,O=C1NCCCC[C@H]1N(Cc1csnn1)S(=O)(=O)c1ccc(Cl)cc1
22,3,O=C1NCCCC[C@H]1N(Cc1ccc2snnc2c1)S(=O)(=O)c1ccc(Cl)cc1
23,2,CC(C)(C)CNC(=O)c1ccc(CN([C@@H]2CCCCNC2=O)S(=O)(=O)c2ccc(Cl)cc2)cc1

# Tested on: MDCK
# Test: Efflux ratio of permeability from basolateral to apical over apical to basolateral side in human MDR1 transfected MDCK cells at 5 uM after 120 mins by LC-MS/MS analysis
# Assay type: ADME, cell-based, Canis lupus familiaris
# Details: dog, 2 h
row,Ratio,Compound
1,1.8,O=C1NCCCC[C@H]1N(Cc1ccc2nccnc2c1)S(=O)(=O)c1ccc(Cl)cc1
2,1.8,O=C1NCCCC[C@H]1N(Cc1ccc2ncccc2c1)S(=O)(=O)c1ccc(Cl)cc1
3,2,O=C1NCCCC[C@H]1N(Cc1ccc2nsnc2c1)S(=O)(=O)c1ccc(Cl)cc1
4,2.7,O=C1NCCCC[C@H]1N(Cc1ccc2c(c1)OCCO2)S(=O)(=O)c1ccc(Cl)cc1
5,2,O=C1NCCCC[C@H]1N(Cc1ccc2snnc2c1)S(=O)(=O)c1ccc(Cl)cc1

# Tested on: Mus musculus
# Test: Neuroprotective activity in wild type FVB mouse brain assessed as reduction of amyloid beta x-40 level at 100 mg/kg, ip
# Assay type: functional
# Details: route intraperitoneal
row,Compound,inhibition in vivo at 100 mg/kg
1,O=C1NCCCC[C@H]1N(Cc1ccc2nccnc2c1)S(=O)(=O)c1ccc(Cl)cc1,26%
2,O=C1NCCCC[C@H]1N(Cc1ccc2ncccc2c1)S(=O)(=O)c1ccc(Cl)cc1,20%
3,O=C1NCCCC[C@H]1N(Cc1ccc2snnc2c1)S(=O)(=O)c1ccc(Cl)cc1,32%

# Target: not listed separately
# Test: Inhibition of gamma-secretase-mediated APP cleavage assessed as amyloid beta40 level after 2 hrs by ELISA
# Details: not given
row,IC50,Compound
1,5360 nM,Cc1cccc(CN([C@@H]2CCCCNC2=O)S(=O)(=O)c2ccc(Cl)cc2)n1
2,76 nM,O=C(Nc1ccccc1)c1ccc(CN([C@@H]2CCCCNC2=O)S(=O)(=O)c2ccc(Cl)cc2)cc1
3,170 nM,COc1ccc(CN([C@@H]2CCCCNC2=O)S(=O)(=O)c2ccc(Cl)cc2)cc1OC
4,131 nM,O=C1NCCCC[C@H]1N(CC1CCc2ccccc2O1)S(=O)(=O)c1ccc(Cl)cc1 (some centres not stated)
5,15 nM,O=C1NCCCC[C@H]1N(Cc1ccc2nccnc2c1)S(=O)(=O)c1ccc(Cl)cc1
6,3 nM,COC(=O)c1ccc(CN([C@@H]2CCCCNC2=O)S(=O)(=O)c2ccc(Cl)cc2)cc1
7,52 nM,O=C1NCCCC[C@H]1N(Cc1cnc2ccccc2c1)S(=O)(=O)c1ccc(Cl)cc1
8,31 nM,O=C(NC1CC1)c1ccc(CN([C@@H]2CCCCNC2=O)S(=O)(=O)c2ccc(Cl)cc2)cc1
9,432 nM,Cc1ccc(CN([C@@H]2CCCCNC2=O)S(=O)(=O)c2ccc(Cl)cc2)o1
10,12 nM,Cn1nnc2cc(CN([C@@H]3CCCCNC3=O)S(=O)(=O)c3ccc(Cl)cc3)ccc21
11,290 nM,O=C1NCCCC[C@H]1N(Cc1cnc2ncccc2c1)S(=O)(=O)c1ccc(Cl)cc1
12,6 nM,O=C1NCCCC[C@H]1N(Cc1ccc2ncccc2c1)S(=O)(=O)c1ccc(Cl)cc1
13,45 nM,CCCNC(=O)c1ccc(CN([C@@H]2CCCCNC2=O)S(=O)(=O)c2ccc(Cl)cc2)cc1
14,1830 nM,O=C1NCCCC[C@H]1N(Cc1nccs1)S(=O)(=O)c1ccc(Cl)cc1
15,23 nM,O=C(NC1CCC1)c1ccc(CN([C@@H]2CCCCNC2=O)S(=O)(=O)c2ccc(Cl)cc2)cc1
16,12 nM,O=C1NCCCC[C@H]1N(Cc1cc2ccccc2o1)S(=O)(=O)c1ccc(Cl)cc1
17,170 nM,COc1cc(CN([C@@H]2CCCCNC2=O)S(=O)(=O)c2ccc(Cl)cc2)ccc1OCCc1scnc1C
18,9 nM,O=C(NCc1ccccc1)c1ccc(CN([C@@H]2CCCCNC2=O)S(=O)(=O)c2ccc(Cl)cc2)cc1
19,1700 nM,COc1cc(CN(C2CCCCNC2=O)S(=O)(=O)c2ccc(Cl)cc2)ccc1OCCc1scnc1C (configuration not stated)
20,13 nM,O=C1NCCCC[C@H]1N(Cc1ccc2nsnc2c1)S(=O)(=O)c1ccc(Cl)cc1
21,2000 nM,COc1cc(CN([C@H]2CCCCNC2=O)S(=O)(=O)c2ccc(Cl)cc2)ccc1OCCc1scnc1C
22,23 nM,O=C(NC1CCCC1)c1ccc(CN([C@@H]2CCCCNC2=O)S(=O)(=O)c2ccc(Cl)cc2)cc1
23,9 nM,O=C1NCCCC[C@H]1N(Cc1ccc2c(c1)OCCO2)S(=O)(=O)c1ccc(Cl)cc1
24,565 nM,Cn1c(CN([C@@H]2CCCCNC2=O)S(=O)(=O)c2ccc(Cl)cc2)cc2ccccc21
25,81 nM,Cc1ccc(CN([C@@H]2CCCCNC2=O)S(=O)(=O)c2ccc(Cl)cc2)s1
26,7 nM,O=C1NCCCC[C@H]1N(Cc1cc2ccccc2s1)S(=O)(=O)c1ccc(Cl)cc1
27,30 nM,CC(C)NC(=O)c1ccc(CN([C@@H]2CCCCNC2=O)S(=O)(=O)c2ccc(Cl)cc2)cc1
28,758 nM,O=C1NCCCC[C@H]1N(Cc1csnn1)S(=O)(=O)c1ccc(Cl)cc1
29,8 nM,O=C1NCCCC[C@H]1N(Cc1ccc2snnc2c1)S(=O)(=O)c1ccc(Cl)cc1
30,30 nM,CC(C)(C)CNC(=O)c1ccc(CN([C@@H]2CCCCNC2=O)S(=O)(=O)c2ccc(Cl)cc2)cc1

# Source: ChEMBL document CHEMBL1777728, “Amino-caprolactam γ-secretase inhibitors showing potential for the treatment of Alzheimer's disease” (Bioorg Med Chem Lett, 2011)
